# Legend:
# [1] = biological target: T1, aggregated Aβ (Aβ1-42) injected into amygdaloid nucleus (Homo sapiens, UniProt P05067); assay: Confirmation of imaging of amyloid in brain (ex vivo autoradiogram, Aβ1-42); parameters: species or system male Wistar rat; conditions: brain slice 60 minutes after tail vein injection
# T1 construct: Aβ1-42 (manufactured by Wako) was dissolved in phosphate buffer (pH 7.4); purchased Wako
# Procedure: The following experiment was carried out in order to examine whether amyloid in brain can be imaged by the compound of the present invention.
# (1) Aβ1-42 (manufactured by Wako) was dissolved in phosphate buffer (pH 7.4) and shaken at 37° C. for 72 hours, to obtain a 1 mg/mL suspension of aggregated Aβ (hereinafter referred to as amyloid suspension in the Examples).
# (2) 2.5 μL (corresponding to […]) of the amyloid suspension was injected into an amygdaloid nucleus on one side of a male Wistar rat (7-week old). As a control, 2.5 μL of a phosphate buffered physiological saline solution (pH 7.4) was injected into an amygdaloid nucleus on the other side of the rat. The rats were examined 1 day after the injection of the amyloid suspension and the phosphate buffered physiological saline solution (pH 7.4).
# (3) Compound 1 was dissolved in a 10 mg/mL ascorbic acid-containing physiological saline solution to obtain a sample solution (22 MBq/mL in radioactivity concentration in the sample solution). This solution was injected under thiopental anesthesia into the rat through the tail vein (dosage: 0.5 mL, dosed radioactivity: 11-13 MBq equivalent).
# (4) Brain was removed 60 minutes after the injection to prepare a brain slice of 10 μm in thickness with a microtome (type: CM3050S, manufactured by LEICA). The brain slice was exposed to an imaging plate for 20 hours, and then image analysis was carried out by use of a Bio-imaging Analyzer (type: BAS-2500; manufactured by FUJIFILM Corporation).
# (5) After the completion of the image analysis using the Bio-imaging Analyzer, […]
# Thus, it was confirmed that amyloid was deposited on the slice (FIG. 6b).
# The same procedures as in Example 12 were performed except using a solution of Compound 2 in a 10 mg/mL ascorbic acid as a sample solution (the radioactive concentration of the sample solution was 25 MBq/mL).
# (1) Aβ1-42 (manufactured by Wako) was dissolved in phosphate buffer (pH 7.4) and shaken at 37° C. for 72 hours, to obtain 1 mg/mL of a suspension of aggregated Aβ (hereinafter referred to as amyloid suspension in the Examples).
# (3) A sample solution (30 MBq/mL in radioactivity concentration, Example 24) in which Compound 4 was dissolved in a 10 mg/mL ascorbic acid-containing physiological saline solution and a sample solution (30 MBq/mL in radioactivity concentration, Example 25) in which Compound 6 was dissolved in a 10 mg/mL ascorbic acid-containing physiological saline solution were prepared. This solution was injected under thiopental anesthesia into the rat through the tail vein (dosage: 0.5 mL, dosed radioactivity: 11-15 MBq equivalent).
# Thus, it was confirmed that amyloid was deposited on the slice (FIG. 12 and FIG. 13).
# [2] = Transferability into brain and clearance; type: in vivo, male Wistar rats; conditions: intravenous injection, rats
# Procedure: Using Compound 1 (Example 10) and Compound 2 (Example 11), a time course change of radioactive accumulation in brain of male Wistar rats (7-week old) was measured.
# A diethyl ether solution of Compound 1 (Example 10) prepared in Example 3, a diethyl ether solution of Compound 2 (Example 11) prepared in Example 6 and a diethyl ether solution of [^123I]-IMPY (Comparative Example 5) prepared in Reference Example 1 were each diluted with 10 mg/mL ascorbic acid-containing physiological saline solution to adjust to a radioactive concentration of 8-12 MBq/mL. 0.05 mL each of the prepared sample solutions was injected under thiopental anesthesia into the tail vein of the rats. The rats were sacrificed by bleeding from abdominal artery, and brains were removed and subjected to measurement of mass of brains and further subjected to measurement of radioactivity (hereinafter referred to as A in this Example) with a single channel analyzer (detector type: SP-20 manufactured by OHYO KOKEN KOGYO Co., Ltd.) 2, 5, 30 and 60 minutes after the injection. Further, the radioactivity level of the rest of the whole body was measured in the same manner as above (hereinafter referred to as B in this Example). Using these measurement results, radioactive distribution per unit weight of brain (% ID/g) at the respective time points were calculated in accordance with the following formula (3).
# Three animals were used for the experiment at the respective time points.
# Using Compound 4 and Compound 6, a time course change of radioactive accumulation in brain of male Wistar rats (7-week old) was measured.
# Compound 4 (Example 22), Compound 6 (Example 23) and a solution of [^123I]-IMPY (Comparative Example 8) prepared above in Reference Example 1 were each diluted with a 10 mg/mL ascorbic acid-containing physiological saline solution to prepare solutions (20-31 MBq/mL in radioactive concentration). 0.05 mL each of the prepared sample solutions was injected under thiopental anesthesia into the tail vein of the respective Wistar rat (7-week old). The rats were sacrificed by bleeding from abdominal artery, and brains were removed and subjected to measurement of mass of brains and further subjected to measurement of radioactivity (hereinafter referred to as A in this Example) with a single channel analyzer (detector type: SP-20 manufactured by OHYO KOKEN KOGYO Co., Ltd.) 2, 5, 30 and 60 minutes after the injection. Further, the radioactivity level of the rest of the whole body was measured in the same manner as above (hereinafter referred to as B in this Example). Using these measurement results, radioactive distribution per unit weight of brain (% ID/g) at the respective time points were calculated in accordance with the following formula (5).
# T1 sequence (P05067 672-713): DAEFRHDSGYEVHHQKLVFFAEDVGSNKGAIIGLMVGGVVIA
Substance,Accumulation of radioactivity in amygdaloid nucleus on the amyloid-injected side [1],"Radioactive distribution per unit weight of brain ([2]; After 2 min., Table 5) [% ID/g]","Radioactive distribution per unit weight of brain ([2]; After 5 min., Table 5) [% ID/g]","Radioactive distribution per unit weight of brain ([2]; After 30 min., Table 5) [% ID/g]","Radioactive distribution per unit weight of brain ([2]; After 60 min., Table 5) [% ID/g]","Radioactive distribution per unit weight of brain ([2]; After 2 min., Table 7) [% ID/g]","Radioactive distribution per unit weight of brain ([2]; After 5 min., Table 7) [% ID/g]","Radioactive distribution per unit weight of brain ([2]; After 30 min., Table 7) [% ID/g]","Radioactive distribution per unit weight of brain ([2]; After 60 min., Table 7) [% ID/g]"
"2-(4′-ethoxyphenyl)-6-[^123I]iodoimidazo[1,2-a]pyridine [Compound 2]",marked accumulation of radioactivity,0.89,0.66,0.13,0.04,–,–,–,–
"2-[4′-(2″-hydroxyethoxy)phenyl]-6-[^123I]iodoimidazo[1,2-a]pyridine [Compound 1]",marked accumulation of radioactivity,0.90,0.52,0.06,0.01,–,–,–,–
"2-[4′-(3″-hydroxypropoxy)phenyl]-6-[^123I]iodoimidazo[1,2-a]pyridine [Compound 6]",marked accumulation of radioactivity,–,–,–,–,0.81,0.56,0.07,0.02
